Results taken from patent publication US11602550B2, “Compositions comprising bacterial strains and use thereof in controlling pathogenic microorganisms” (priority 2018, dated 2023).

How the values were obtained:
Assay in all cases: Agar well diffusion antifungal assay against molds
Assay type in all cases: cell-based
Details in all cases: PDA plates, 25° C. 72 hours; NA: No antagonism was observed
[1] = test system: Penicillium chrysogenum Thom (ATCC MYA-4644)
Description: (§1) The agar well diffusion assay was performed to evaluate the antagonistic activity of B. amyloliquefaciens 298 against the growth of pathogenic bacteria including Escherichia coli ATCC 22922, Pseudomonas aeruginosa, B. cereus ATCC 27348, Staphylococcus aureus ATCC 11335, Salmonella Typhimurium ATCC 14028 and Listeria innocua ATCC 3586. […] Brain Heart Infusion (BHI) Agar was used for the antagonism against pathogenic microorganisms while the Potato Dextrose Agar (PDA) was used for evaluation against molds. Reference pathogens were prepared using BHI broth at 37° C. for 18 hours while B. amyloliquefaciens 298 was grown using LB broth at 37° C. for 18 hours. Molds were prepared using PDA at 25° C. with 85% HR for 7 days. Mold spores, pathogens and B. amyloliquefaciens 298 were harvested and resuspended in PBS. Pathogens and B. amyloliquefaciens 298 were adjusted to an optical density of 0.2 and 100 uL of pathogen suspended in PBS was spread on BHI agar plates. The same amount of mold spore suspension was inoculated on PDA. Wells were made in all the plates and 20 μL of B. amyloliquefaciens 298 suspensions were inoculated in the wells while the BHI plates were incubated at 37° C. for 24 hours and PDA plates at 25° C. for 72 hours.
(§2) The agar well diffusion assay was performed to evaluate the antagonistic activity of B. subtilis 3 against the growth of pathogenic bacteria including Escherichia coli ATCC 25922, Pseudomonas aeruginosa ATCC 27853, B. cereus ATCC 27348, Staphylococcus aureus ATCC 6538, Salmonella Typhymurium ATCC 14028 and Listeria inocua ATCC 33090. […] Brain Heart Infusion (BHI) Agar was used for the antagonism against pathogenic microorganisms while the Potato Dextrose Agar (PDA) was used for evaluation against molds. Reference pathogens were prepared using BHI broth 37° C. for 18 hours, while B. subtilis 3 was grown using LB broth at 37° C. for 18 hours. Molds were prepared using PDA at 25° C. with 85% HR for 7 days. Mold spores, pathogens and B. subtilis 3 were harvested and resuspended in PBS. […] The same amount of mold spore suspension was inoculated on PDA. […]

[2] = test system: Alternaria alternata (Fries) Keissler (ATCC MYA-4642)
Description: as §1, §2

[3] = test system: Cladosporium sphaerospermum Penzig (ATCC MYA-4645)
Description: as §1, §2

## OO [Hydrogen peroxide 10%, Hydrogen peroxide]
[1]
  Inhibition zone, Penicillium chrysogenum Thom (ATCC MYA-4644): 10 mm
[2]
  Inhibition zone, Alternaria alternata (Fries) Keissler (ATCC MYA-4642): 8 mm
[3]
  Inhibition zone, Cladosporium sphaerospermum Penzig (ATCC MYA-4645): 12 mm
